Earlier results as cited in article PMC3836577 (Microbial Biotechnology, 2010).
Ends that are not written are not given here.

Test system: S. aureus Sa113
Conditions: literature value for comparison; ref Peschel et al., 2001

Question: With “nisin (ITSISLCTPGCKTGALMGCNMKTATCHCSIHVSK; also: lantibiotic thioether rings and dehydrated residues not placed; UniProt P13068 24-57, looked up)” as the substance, how does the “Activity against Sa113 (MIC)” value read?
Answer: 14 µM
